Assay results published in patent US10981932B2, “Macrocyclic indole derivatives” (Bayer Aktiengesellschaft, priority 2016, dated 2021).
Where two headings read alike, the source gives them in different places.

How the values were obtained:
SUDHL10 [1] = assay: Induction of caspase-3/7 activity (Caspase-Glo 3/7), SUDHL10; type: cell-based; conditions: caspase-3/7 induction, SUDHL10 cells, 3 h treatment, median
Summary of the method: (§1)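 Caspase-Glo 3/7 luminescence, 3 h compound exposure, 37 °C, humidified. Minus medium-only blank. EC50 fit: C0=1, plateau = reference max induction.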

SUDHL5 [2] = assay: Induction of cytotoxicity (CellTiter-Glo, 5 h), SUDHL5
OPM2 = assay: Anti-proliferative effect (CellTiter-Glo, 72 h), OPM2; type: cell-based; conditions: OPM2 cells, median, read-out: IC50 antiproliferation assay OPM2 [M] (median)
Summary of the method: (§2)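 Viable cells quantified with CellTiter-Glo after 72 h at 37 °C; rim wells excluded; day 0 plate as baseline.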

MCL-1 = MCL-1 (Homo sapiens, UniProt Q07820); assay: Protein-protein interaction assay MCL-1/Noxa BH3 peptide (MCL-1 assay), TR-FRET; type: binding; conditions: MBP-MCL-1 / Noxa BH3-derived peptide, median
Sequence of MCL-1 (Q07820 whole entry): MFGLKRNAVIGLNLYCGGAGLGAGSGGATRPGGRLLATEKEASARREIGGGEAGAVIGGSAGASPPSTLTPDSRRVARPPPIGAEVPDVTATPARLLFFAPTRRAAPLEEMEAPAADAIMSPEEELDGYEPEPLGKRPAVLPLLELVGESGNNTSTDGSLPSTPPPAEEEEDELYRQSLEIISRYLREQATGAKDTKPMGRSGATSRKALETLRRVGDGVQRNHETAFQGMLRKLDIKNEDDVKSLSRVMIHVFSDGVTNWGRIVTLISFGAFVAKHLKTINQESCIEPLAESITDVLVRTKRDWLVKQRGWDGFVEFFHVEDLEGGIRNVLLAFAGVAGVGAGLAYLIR
Summary of the method: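 Displacement of the biotinylated Noxa BH3 peptide from MBP-tagged human MCL-1 (1 nM) is detected by time-resolved FRET. Compounds are tested in duplicate across eleven concentrations up to 20 μM, incubated 1 h at 22 °C and overnight at 4 °C, and IC50 is fitted with a four-parameter equation.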

A2780 = assay: Anti-proliferative effect (CellTiter-Glo, 72 h), A2780; type: cell-based; conditions: A2780 cells, median, read-out: IC50 antiproliferation assay A2780 [M] (median)
Summary of the method: as §2

SUDHL5 [3] = assay: Induction of caspase-3/7 activity (Caspase-Glo 3/7), SUDHL5; type: cell-based; conditions: caspase-3/7 induction, SUDHL5 cells, 3 h treatment, median
Summary of the method: as §1

SUDHL5 [4] = assay: Anti-proliferative effect (CellTiter-Glo, 72 h), SUDHL5; type: cell-based; conditions: SUDHL5 cells, antiproliferation, 72 h incubation, median, read-out: Antiproli SUDHL5 [M] (median)
Summary of the method: as §2

SUDHL10 [5] = assay: Anti-proliferative effect (CellTiter-Glo, 72 h), SUDHL10; type: cell-based; conditions: SUDHL10 cells, antiproliferation, 72 h incubation, median, read-out: Antiproli SUDHL10 [M] (median)
Summary of the method: as §2

SUDHL10 [6] = assay: Induction of cytotoxicity (CellTiter-Glo, 5 h), SUDHL10
[7] = Homo sapiens, SU-DHL-5, 5 h, read-out: Cytotox SUDHL5 [M] (median), SUDHL5 cells, cytotoxicity induction, CellTiter-Glo, 5 h incubation, median
[8] = Homo sapiens, SU-DHL10, 5 h, read-out: Cytotox SUDHL10 [M] (median), SUDHL10 cells, cytotoxicity induction, CellTiter-Glo, 5 h incubation, median

SMILES | EC50 (SUDHL10 [1]; Homo sapiens, SU-DHL10, 3 h) [µM] | IC50 (SUDHL5 [2]; [7]) [M] | IC50 (OPM2; Homo sapiens, OPM-2, 72 h) [M] | IC50 (MCL-1) [µM] | IC50 (A2780; Homo sapiens, A2780, 72 h) [M] | EC50 (SUDHL5 [3]; Homo sapiens, SU-DHL-5, 3 h) [µM] | IC50 (SUDHL5 [4]; Homo sapiens, SU-DHL-5, 72 h) [M] | IC50 (SUDHL10 [5]; Homo sapiens, SU-DHL10, 72 h) [M] | IC50 (SUDHL10 [6]; [8]) [M] | EC50 (SUDHL10 [1]) [µM] | IC50 (SUDHL5 [2]; read-out: Cytotox SUDHL5 [M] (median), SUDHL5 cells, cytotoxicity induction, CellTiter-Glo, 5 h incubation, median) | IC50 (OPM2) [M] | IC50 (A2780) [M] | EC50 (SUDHL5 [3]) [µM] | IC50 (SUDHL5 [4]) [M] | IC50 (SUDHL10 [5]) [M] | IC50 (SUDHL10 [6]; read-out: Cytotox SUDHL10 [M] (median), SUDHL10 cells, cytotoxicity induction, CellTiter-Glo, 5 h incubation, median)
Cc1ccc2c(CCCOc3cccc4ccccc34)c(C(=O)O)n3c2c1-c1c(nn(C)c1C)COC/C=C\C3 (racemic) [Example 070, (rac)-(11Z)-2,3,4-trimethyl-7-[3-(naphthalen-1-yloxy)propyl]-2,10,13,15-tetrahydropyrazolo[4′,3′:9,10][1,6]oxazacycloundecino[8,7,6-hi]indole-8-carboxylic Acid] | 8.62 | 4.28e-06 | 1.34e-05 | 0.00652 | 1.87e-05 | 5.4 | 2e-06 | 8.58e-06 | 9.59e-06 | – | – | – | – | – | – | – | –
COCCn1nc2c(c1C)-c1cccc3c(CCCOc4cccc5ccccc45)c(C(=O)O)n(c13)C/C=C\COC2 (racemic) [Example 071, (rac)-(11Z)-2-(2-methoxyethyl)-3-methyl-7-[3-(naphthalen-1-yloxy)propyl]-2,10,13,15-tetrahydropyrazolo[4′,3′:9,10][1,6]oxazacycloundecino[8,7,6-hi]indole-8-carboxylic Acid] | 11.1 | 7.45e-06 | 1.3e-05 | 0.00412 | 1.89e-05 | 5.04 | 6.23e-06 | 2.59e-06 | 1.76e-05 | – | – | – | – | – | – | – | –
Cc1ccc2c(CCCOc3cccc4ccccc34)c(C(=O)O)n3c2c1-c1c(nn(C)c1C)CN(C)CCC3 (racemic) [Example 072, (rac)-7,10,11,12-tetramethyl-1-[3-(naphthalen-1-yloxy)propyl]-4,5,6,7,8,10-hexahydropyrazolo[3′,4′:7,8][1,5]diazecino[9,10,1-hi]indole-2-carboxylic Acid] | 4.91 | 3.43e-06 | 8.23e-06 | 0.0034 | 9.51e-06 | 4.54 | 1.11e-06 | 5.65e-06 | 6.12e-06 | – | – | – | – | – | – | – | –
Cc1ccc2c(CCCOc3cccc4ccccc34)c(C(=O)O)n3c2c1-c1c(nn(C)c1C)COCCCC3 (racemic) [Example 075, (rac)-2,3,4-trimethyl-7-[3-(naphthalen-1-yloxy)propyl]-2,10,11,12,13,15-hexahydropyrazolo[4′,3′:9,10][1,6]oxazacycloundecino[8,7,6-hi]indole-8-carboxylic Acid] | 6.36 | 3.66e-06 | 1.1e-05 | 0.00171 | 1.97e-05 | 3.25 | 3.21e-06 | 2.63e-06 | 8.23e-06 | – | – | – | – | – | – | – | –
CCn1nc2c(c1C1CC1)-c1cccc3c(CCCOc4cccc5ccccc45)c(C(=O)O)n(c13)CCCCOC2 (racemic) [Example 081, (rac)-3-Cyclopropyl-2-ethyl-7-[3-(naphthalen-1-yloxy)propyl]-2,10,11,12,13,15-hexahydropyrazolo[4′3′:9,10][1,6]oxazacycloundecino[8,7,6-hi]indole-8-carboxylic Acid] | 19 | 7.06e-06 | 1.44e-05 | 0.015 | 1.74e-05 | 7.21 | 9.61e-06 | 9.62e-06 | 2.26e-05 | – | – | – | – | – | – | – | –
COCCn1nc2c(c1C1CC1)-c1cccc3c(CCCOc4cccc5ccccc45)c(C(=O)O)n(c13)CCCCOC2 (racemic) [Example 084, (rac)-3-Cycopropyl-2-(2-methoxyethyl)-7-[3-(naphthalen-1-yloxy)propyl]-2,10,11,12,13,15-hexahydropyrazolo[4′,3′:9,10][1,6]oxazacycloundecino[8,7,6-hi]indole-8-carboxylic Acid] | 14.9 | 6.6e-06 | 2.67e-05 | 0.00309 | 1.77e-05 | 7.55 | 7.19e-06 | 3.87e-06 | 2.06e-05 | – | – | – | – | – | – | – | –
CN1CCCn2c(C(=O)O)c(CCCOc3cccc4ccccc34)c3cccc(c32)-c2c(CCN3CCOCC3)nn(C)c2C1 (racemic) [Example 124, (rac)-7,9-dimethyl-11-[2-(morpholin-4-yl)ethyl]-1-[3-(naphthalen-1-yloxy)propyl]-4,5,6,7,8,9-hexahydropyrazolo[3′,4′:7,8][1,5]diazecino[9,10,1-hi]indole-2-carboxylic Acid] | 13.4 | 1.71e-05 | 1.48e-05 | 0.0187 | 1.1e-05 | 11.2 | 6.64e-06 | 3.05e-06 | 1.61e-05 | – | – | – | – | – | – | – | –
Cn1nc(CN2CCOCC2)c2c1COCC=CCn1c(C(=O)O)c(CCCOc3cccc4ccccc34)c3cccc-2c31 (racemic) [Example 132, (rac)-(E/Z)-1-methyl-3-(morpholin-4-ylmethyl)-7-[3-(naphthalen-1-yloxy)propyl]-1,10,13,15-tetrahydropyrazolo[4′,3′:9,10][1,6]oxazacycloundecino[8,7,6-hi]indole-8-carboxylic Acid] | > 33 | 2.81e-05 | 1.17e-05 | 0.0335 | 1.34e-05 | 25.4 | 1.78e-05 | 6e-06 | 1.69e-05 | – | – | – | – | – | – | – | –
Cn1nc(CN2CCOCC2)c2c1COCCCCn1c(C(=O)O)c(CCCOc3cccc4ccccc34)c3cccc-2c31 (racemic) [Example 135, (rac)-1-methyl-3-(morpholin-4-ylmethyl)-7-[3-(naphthalen-1-yloxy)propyl]-1,10,11,12,13,15-hexahydropyrazolo[4′,3′:9,10][1,6]oxazacycloundecino[8,7,6-hi]indole-8-carboxylic Acid] | > 33 | 1.06e-05 | > 3.3e-05 | 0.0147 | > 3.3e-05 | 12.1 | 7.26e-06 | 1.01e-05 | > 3.3e-05 | – | – | – | – | – | – | – | –
CN1CCCn2c(C(=O)O)c(CCCOc3cccc4ccccc34)c3cccc(c32)-c2c(COc3ccc(N4CCN(S(C)(=O)=O)CC4)cc3)nn(C)c2C1 (single isomer, unassigned) [Example 1-47, (−)-7,9-dimethyl-11-({4-[4-(methylsulfonyl)piperazin-1-yl]phenoxy}methyl)-1-[3-(naphthalen-1-yloxy)propyl]-4,5,6,7,8,9-hexahydropyrazolo[3′,4′:7,8][1,5]diazecino[9,10,1-hi]indole-2-carboxylic Acid] | – | – | – | 0.0193 | – | – | – | – | – | 9.54 | 1.08e-05 | 8.35e-06 | 6.4e-06 | 9.12 | 3.91e-06 | 3.99e-06 | 1.32e-05
